In patent US20210186879A1, “TARGETED DELIVERY OF HYDROPHILIC DRUGS TO LUNG” (DOUBLE BOND PHARMACEUTICALS AB, priority 2016, published 2021):
Each block holds one molecule with its values, some of them ahead of it.

Experiments:
[1] = Solubility in aqueous ethanol (UV method); type: physicochemical; conditions: for Solubility in 20% ethanol: doxycycline salts, Table 9, in mg/mL; for Solubility in 30% ethanol: doxorubicin salts
Description: The mixture was centrifuged at 3000 rpm for 10 min and the supernatant filtered through a 0.2 micrometer filter to remove aggregates of undissolved solid product. The solubility of the compound was determined by a UV method. Particle size analysis was accomplished by laser diffraction method.

[2] = In vivo distribution of doxorubicin in lung and femoral muscle of Californian rabbits; conditions: 4 hours; for Femoral muscle DOX / Lung tissue DOX: 1.25 mg/kg i.v. marginal ear vein, ± SD
Description: (§1) For in vivo investigation both rats and rabbits were used: female Wistar rats 60-75 days old weighing 300 g±30 g and Californian breed male rabbits 75-90 days old weighing 2000 g±250 g were selected. […] Different doxorubicin containing formulations with a total doxorubicin dose 5 mg/kg were administered via a single bolus injection into the tail for rats and via a slow flow of 1 ml/min in the marginal ear vein for rabbits.
(§2) Five or six pieces of lung tissue of a total weight of about 1 g were taken from different parts of a lung. The samples were homogenized with a solution of aqueous ethanol containing HCl for 20 s at 7000 rpm and for 10 s at 11000 rpm. […] Doxorubicin and doxycycline (DOC) concentration in the final supernatant was determined with fluorometric analysis and high-performance liquid chromatography respectively.
Suspension of complexes of doxorubicin and doxorubicin hydrochloride were administered via a slow flow of 1 ml/min to rabbits in the marginal ear vein with a total doxorubicin dose 1.25 mg/kg. Animals were sacrificed after 4 hours after administration. Concentration of doxorubicin in lung and femoral muscle was determined in accordance to the procedure described above. As it is seen from table 8 the concentration of doxorubicin in femoral muscle as a representation of a system concentration is not increased for complexes compared with doxorubicin hydrochloride.

[3] = In vivo distribution of doxorubicin in lung and blood serum of Wistar rats; conditions: 4 hours; for Blood serum DOX / Lung tissue DOX: 5 mg/kg i.v. single bolus, ± SD; for Blood serum Relative difference / Lung tissue Relative difference: relative to control CI-DOX (1)
Description: as §1, §2
An aqueous solution of doxorubicin hydrochloride, an aqueous suspension of doxorubicin alkane sulfate and an aqueous suspension of doxorubicin alkyl sulfonate were administered via a single bolus injection into the tail Animals were sacrificed after 4 hours after administered via a single bolus injection into the tail; total doxorubicin dose 5 mg/kg. […] The results are summarized in Table 7 and illustrated in FIG. 10.

[4] = In vivo distribution of doxycycline in lung and blood serum of Wistar rats; conditions: 30 min; for Blood serum Difference / Lung tissue Difference: relative to control CI-DOX (1); for Blood serum DOX / Lung tissue DOX: doxycycline, 3 mg/kg i.v. single bolus, ± SD
Description: as §2

[5] = irinotecan alkane sulfonates, 30% ethanol (v/v) per table title
[6] = mitoxantrone alkyl sulfates and alkane sulfonates, 30% ethanol (v/v)
[7] = doxycycline alkane sulfonates and alkyl sulfates, 20% aqueous ethanol
[8] = doxorubicin alkyl sulfates and alkane sulfonates, 30% ethanol (v/v)

Solubility [1, 5]: 0.01476 mg/mL
Structure (SMILES): CCCCCCCCCCCCCCCCS(=O)(=O)O.CCc1c2c(nc3ccc(OC(=O)N4CCC(N5CCCCC5)CC4)cc13)-c1cc3c(c(=O)n1C2)COC(=O)C3(O)CC (stereo not drawn) [irinotecan alkane sulfonate n=16]

Structure (SMILES): CCCCCCCCCCCCS(=O)(=O)O.CCCCCCCCCCCCS(=O)(=O)O.O=C1c2c(O)ccc(O)c2C(=O)c2c(NCCNCCO)ccc(NCCNCCO)c21 [mitoxantrone CnH2n+1SO3^− n=12]
Solubility [1, 6]: 0.6831 mg/mL

Structure (SMILES): CCCCCCCCCCCCCCOS(=O)(=O)O.CCCCCCCCCCCCCCOS(=O)(=O)O.O=C1c2c(O)ccc(O)c2C(=O)c2c(NCCNCCO)ccc(NCCNCCO)c21 [mitoxantrone CnH2n+1OSO3^− n=14]
Solubility [1, 6]: 0.0072 mg/mL

Solubility [1, 7]: 3.165 mg/mL
Structure (SMILES): CC1c2cccc(O)c2C(O)=C2C(=O)C3(O)C(O)=C(C(N)=O)C(=O)C(N(C)C)C3C(O)C21.CCCCCCCCCCS(=O)(=O)O (stereo not drawn) [doxycycline CnH2n+1SO3^− n=10]

Femoral muscle DOX [2]: 0.20 ± 0.02 µg/kg
Lung tissue DOX [2]: 1.61 ± 0.25 µg/kg
Blood serum DOX [3]: 0.021 ± 0.007 µg/kg
Lung tissue DOX [3]: 0.77 ± 0.19 µg/kg
Structure (SMILES): CCCCCCCCCCCCOS(=O)(=O)O.COc1cccc2c1C(=O)c1c(O)c3c(c(O)c1C2=O)C[C@@](O)(C(=O)CO)C[C@@H]3O[C@H]1C[C@H](N)[C@H](O)[C@H](C)O1 [doxorubicin CnH2n+1OSO3^− n=12]

Solubility [1, 8]: 0.00279 mg/mL
Structure (SMILES): CCCCCCCCCCCCCCCCCCS(=O)(=O)O.COc1cccc2c1C(=O)c1c(O)c3c(c(O)c1C2=O)CC(O)(C(=O)CO)CC3OC1CC(N)C(O)C(C)O1 (stereo not drawn) [doxorubicin CnH2n+1SO3^− n=18]

Solubility [1, 5]: 0.07064 mg/mL
Structure (SMILES): CCCCCCCCCCCCCCS(=O)(=O)O.CCc1c2c(nc3ccc(OC(=O)N4CCC(N5CCCCC5)CC4)cc13)-c1cc3c(c(=O)n1C2)COC(=O)C3(O)CC (stereo not drawn) [irinotecan alkane sulfonate n=14]

Solubility [1, 7]: 0.1178 mg/mL
Solubility in 20% ethanol [1]: 0.1178
Blood serum Difference [4]: 0.39
Lung tissue Difference [4]: 9.20
Blood serum DOX [4]: 45 ± 1 ng/mL
Lung tissue DOX [4]: 1582 ± 101 ng/mL
Structure (SMILES): CC1c2cccc(O)c2C(O)=C2C(=O)C3(O)C(O)=C(C(N)=O)C(=O)C(N(C)C)C3C(O)C21.CCCCCCCCCCCCCCOS(=O)(=O)O (stereo not drawn) [doxycycline CnH2n+1OSO3^− n=14]

Structure (SMILES): CCCCCCCCS(=O)(=O)O.CCCCCCCCS(=O)(=O)O.O=C1c2c(O)ccc(O)c2C(=O)c2c(NCCNCCO)ccc(NCCNCCO)c21 [mitoxantrone CnH2n+1SO3^− n=8]
Solubility [1, 6]: 1.348 mg/mL

Solubility [1, 5]: 0.8348 mg/mL
Structure (SMILES): CCCCCCCCCCS(=O)(=O)O.CCc1c2c(nc3ccc(OC(=O)N4CCC(N5CCCCC5)CC4)cc13)-c1cc3c(c(=O)n1C2)COC(=O)C3(O)CC (stereo not drawn) [irinotecan alkane sulfonate n=10]

Blood serum Difference [4]: 1.10
Lung tissue Difference [4]: 3.20
Blood serum DOX [4]: 127 ± 22 ng/mL
Lung tissue DOX [4]: 551 ± 185 ng/mL
Structure (SMILES): CC1c2cccc(O)c2C(O)=C2C(=O)C3(O)C(O)=C(C(N)=O)C(=O)C(N(C)C)C3C(O)C21.CCCCCCCCCCCCOS(=O)(=O)O (stereo not drawn) [doxycycline CnH2n+1OSO3^− n=12]

Solubility [1, 7]: 0.03199 mg/mL
Structure (SMILES): CC1c2cccc(O)c2C(O)=C2C(=O)C3(O)C(O)=C(C(N)=O)C(=O)C(N(C)C)C3C(O)C21.CCCCCCCCCCCCCCCCOS(=O)(=O)O (stereo not drawn) [doxycycline CnH2n+1OSO3^− n=16]

Solubility [1, 7]: 0.00181 mg/mL
Structure (SMILES): CC1c2cccc(O)c2C(O)=C2C(=O)C3(O)C(O)=C(C(N)=O)C(=O)C(N(C)C)C3C(O)C21.CCCCCCCCCCCCCCCCCCS(=O)(=O)O (stereo not drawn) [doxycycline CnH2n+1SO3^− n=18]

Solubility [1, 7]: 0.0551 mg/mL
Structure (SMILES): CC1c2cccc(O)c2C(O)=C2C(=O)C3(O)C(O)=C(C(N)=O)C(=O)C(N(C)C)C3C(O)C21.CCCCCCCCCCCCCCS(=O)(=O)O (stereo not drawn) [doxycycline CnH2n+1SO3^− n=14]

Solubility [1, 8]: 0.04596 mg/mL
Structure (SMILES): CCCCCCCCCCCCCCS(=O)(=O)O.COc1cccc2c1C(=O)c1c(O)c3c(c(O)c1C2=O)CC(O)(C(=O)CO)CC3OC1CC(N)C(O)C(C)O1 (stereo not drawn) [doxorubicin CnH2n+1SO3^− n=14]

Femoral muscle DOX [2]: 0.12 ± 0.06 µg/kg
Lung tissue DOX [2]: 10.70 ± 0.77 µg/kg
Femoral muscle Relative difference ([2]; relative to control CI-DOX (1)): 0.52
Lung tissue Relative difference ([2]; relative to control CI-DOX (1)): 12.89
Solubility [1, 8]: 0.01194 mg/mL
Solubility in 30% ethanol ([1]; Table 7): 0.012
Solubility in 30% ethanol ([1]; Table 8): 0.0119
Blood serum DOX [3]: 0.019 ± 0.007 µg/kg
Lung tissue DOX [3]: 6.11 ± 0.75 µg/kg
Blood serum Relative difference [3]: 1.04
Lung tissue Relative difference [3]: 8.61
Structure (SMILES): CCCCCCCCCCCCCCCCS(=O)(=O)O.COc1cccc2c1C(=O)c1c(O)c3c(c(O)c1C2=O)CC(O)(C(=O)CO)CC3OC1CC(N)C(O)C(C)O1 (stereo not drawn) [doxorubicin CnH2n+1SO3^− n=16]

Structure (SMILES): CCCCCCCCOS(=O)(=O)O.CCCCCCCCOS(=O)(=O)O.O=C1c2c(O)ccc(O)c2C(=O)c2c(NCCNCCO)ccc(NCCNCCO)c21 [mitoxantrone CnH2n+1OSO3^− n=8]
Solubility [1, 6]: 0.7806 mg/mL

Solubility [1, 8]: 0.0026 mg/mL
Structure (SMILES): CCCCCCCCCCCCCCCCCCOS(=O)(=O)O.COc1cccc2c1C(=O)c1c(O)c3c(c(O)c1C2=O)CC(O)(C(=O)CO)CC3OC1CC(N)C(O)C(C)O1 (stereo not drawn) [doxorubicin CnH2n+1OSO3^− n=18]

Solubility [1, 8]: 0.5077 mg/mL
Structure (SMILES): CCCCCCCCCCOS(=O)(=O)O.COc1cccc2c1C(=O)c1c(O)c3c(c(O)c1C2=O)CC(O)(C(=O)CO)CC3OC1CC(N)C(O)C(C)O1 (stereo not drawn) [doxorubicin CnH2n+1OSO3^− n=10]

Solubility [1, 7]: 0.3203 mg/mL
Solubility in 20% ethanol [1]: 0.3203
Blood serum Difference [4]: 0.53
Lung tissue Difference [4]: 5.48
Blood serum DOX [4]: 61 ± 7 ng/mL
Lung tissue DOX [4]: 943 ± 600 ng/mL
Structure (SMILES): CC1c2cccc(O)c2C(O)=C2C(=O)C3(O)C(O)=C(C(N)=O)C(=O)C(N(C)C)C3C(O)C21.CCCCCCCCCCCCS(=O)(=O)O (stereo not drawn) [doxycycline CnH2n+1SO3^− n=12]

Solubility [1, 7]: 3.777 mg/mL
Structure (SMILES): CC1c2cccc(O)c2C(O)=C2C(=O)C3(O)C(O)=C(C(N)=O)C(=O)C(N(C)C)C3C(O)C21.CCCCCCCCCCOS(=O)(=O)O (stereo not drawn) [doxycycline CnH2n+1OSO3^− n=10]

Structure (SMILES): CCCCCCCCCCCCCCS(=O)(=O)O.CCCCCCCCCCCCCCS(=O)(=O)O.O=C1c2c(O)ccc(O)c2C(=O)c2c(NCCNCCO)ccc(NCCNCCO)c21 [mitoxantrone CnH2n+1SO3^− n=14]
Solubility [1, 6]: 0.00203 mg/mL

Blood serum DOX [3]: 0.014 ± 0.003 µg/kg
Lung tissue DOX [3]: 0.88 ± 0.09 µg/kg
Blood serum Relative difference [3]: 0.75
Lung tissue Relative difference [3]: 1.24
Structure (SMILES): CCCCCCCCCCCCS(=O)(=O)O.COc1cccc2c1C(=O)c1c(O)c3c(c(O)c1C2=O)CC(O)(C(=O)CO)CC3OC1CC(N)C(O)C(C)O1 (stereo not drawn) [doxorubicin CnH2n+1SO3^− n=12]

Solubility [1, 5]: 0.1545 mg/mL
Structure (SMILES): CCCCCCCCCCCCS(=O)(=O)O.CCc1c2c(nc3ccc(OC(=O)N4CCC(N5CCCCC5)CC4)cc13)-c1cc3c(c(=O)n1C2)COC(=O)C3(O)CC (stereo not drawn) [irinotecan alkane sulfonate n=12]

Solubility [1, 7]: 0.00523 mg/mL
Structure (SMILES): CC1c2cccc(O)c2C(O)=C2C(=O)C3(O)C(O)=C(C(N)=O)C(=O)C(N(C)C)C3C(O)C21.CCCCCCCCCCCCCCCCCCOS(=O)(=O)O (stereo not drawn) [doxycycline CnH2n+1OSO3^− n=18]

Structure (SMILES): CCCCCCCCCCS(=O)(=O)O.CCCCCCCCCCS(=O)(=O)O.O=C1c2c(O)ccc(O)c2C(=O)c2c(NCCNCCO)ccc(NCCNCCO)c21 [mitoxantrone CnH2n+1SO3^− n=10]
Solubility [1, 6]: 0.2949 mg/mL

Solubility [1, 7]: 0.01034 mg/mL
Solubility in 20% ethanol [1]: 0.0103
Blood serum Difference [4]: 0.22
Lung tissue Difference [4]: 11.74
Blood serum DOX [4]: 25 ± 2 ng/mL
Lung tissue DOX [4]: 2020 ± 117 ng/mL
Structure (SMILES): CC1c2cccc(O)c2C(O)=C2C(=O)C3(O)C(O)=C(C(N)=O)C(=O)C(N(C)C)C3C(O)C21.CCCCCCCCCCCCCCCCS(=O)(=O)O (stereo not drawn) [doxycycline CnH2n+1SO3^− n=16]

Structure (SMILES): CCCCCCCCCCOS(=O)(=O)O.CCCCCCCCCCOS(=O)(=O)O.O=C1c2c(O)ccc(O)c2C(=O)c2c(NCCNCCO)ccc(NCCNCCO)c21 [mitoxantrone CnH2n+1OSO3^− n=10]
Solubility [1, 6]: 0.1758 mg/mL

Solubility [1, 8]: 1.064 mg/mL
Structure (SMILES): CCCCCCCCCCS(=O)(=O)O.COc1cccc2c1C(=O)c1c(O)c3c(c(O)c1C2=O)CC(O)(C(=O)CO)CC3OC1CC(N)C(O)C(C)O1 (stereo not drawn) [doxorubicin CnH2n+1SO3^− n=10]
